Drawing on the OligoGym collection, this text covers normalised inhibition (eCFP-eYFP dual reporter) for 19 substances.

Oligonucleotides are written 5' to 3', each unit as a sugar letter and its base; * is a phosphorothioate linkage, no mark a phosphodiester; rarer units and linkages stand in square brackets, end groups in braces. Plain capitals give the bases only. d = 2'-deoxy (DNA); r = 2'-OH (RNA)

In the data set the target is UBE2C. In words: reporter assay of Huesken 2005. The settings on record: siRNA.
Also: test concentration or dose not given here.

“sense rCrCrCrArGrUrGrGrCrUrArCrCrCrUrUrArCrAdTdT / antisense rUrGrUrArArGrGrGrUrArGrCrCrArCrUrGrGrGdGdA” yielded a normalised inhibition (eCFP-eYFP dual reporter) of 85.7%. For “sense rArGrGrUrArUrArArGrCrUrCrUrCrGrCrUrArGdTdT / antisense rCrUrArGrCrGrArGrArGrCrUrUrArUrArCrCrUdCdA”, the normalised inhibition (eCFP-eYFP dual reporter) worked out at 92.4%. In turn, “sense rGrArGrCrArGrCrUrGrGrArArCrArGrUrArUrAdTdT / antisense rUrArUrArCrUrGrUrUrCrCrArGrCrUrGrCrUrCdCdA” returned a normalised inhibition (eCFP-eYFP dual reporter) of 85.2%. “sense rArCrGrUrGrGrArCrArCrCrCrArGrGrGrUrArAdTdT / antisense rUrUrArCrCrCrUrGrGrGrUrGrUrCrCrArCrGrUdTdG” yielded a normalised inhibition (eCFP-eYFP dual reporter) of 83%. Turning to “sense rGrCrCrUrUrCrUrArGrGrArGrArArCrCrCrArAdTdT / antisense rUrUrGrGrGrUrUrCrUrCrCrUrArGrArArGrGrCdTdC”, the normalised inhibition (eCFP-eYFP dual reporter) was determined as 92.8%. To “sense rCrCrUrGrUrArUrGrArUrGrUrCrArGrGrArCrCdTdT / antisense rGrGrUrCrCrUrGrArCrArUrCrArUrArCrArGrGdGdC” belongs 42%. In turn, “sense rUrCrCrUrGrArArGrGrArArArArGrUrGrGrUrCdTdT / antisense rGrArCrCrArCrUrUrUrUrCrCrUrUrCrArGrGrAdTdG” yielded a normalised inhibition (eCFP-eYFP dual reporter) of 71.8%. As for “sense rCrArCrCrCrCrArArCrGrUrGrGrArCrArCrCrCdTdT / antisense rGrGrGrUrGrUrCrCrArCrGrUrUrGrGrGrGrUrGdAdT”, the normalised inhibition (eCFP-eYFP dual reporter) stood at 11.6%. “sense rCrArUrGrCrUrGrCrCrGrArGrCrUrCrUrGrGrAdTdT / antisense rUrCrCrArGrArGrCrUrCrGrGrCrArGrCrArUrGdTdG” returned a normalised inhibition (eCFP-eYFP dual reporter) of 90.5%. Turning to “sense rCrCrArUrCrCrArUrGrGrArGrCrArGrCrUrGrGdTdT / antisense rCrCrArGrCrUrGrCrUrCrCrArUrGrGrArUrGrGdTdC”, the normalised inhibition (eCFP-eYFP dual reporter) turned out to be 80.7%. “sense rGrCrCrCrUrGrCrUrArUrCrArCrCrCrCrArArCdTdT / antisense rGrUrUrGrGrGrGrUrGrArUrArGrCrArGrGrGrCdGdT” showed a normalised inhibition (eCFP-eYFP dual reporter) of 63.4%. Substance “sense rUrGrArArCrArCrArCrArUrGrCrUrGrCrCrGrAdTdT / antisense rUrCrGrGrCrArGrCrArUrGrUrGrUrGrUrUrCrAdAdG” yielded a normalised inhibition (eCFP-eYFP dual reporter) of 86.5%. “sense rGrArGrArArCrCrCrArArCrArUrUrGrArUrArGdTdT / antisense rCrUrArUrCrArArUrGrUrUrGrGrGrUrUrCrUrCdCdT” gave a normalised inhibition (eCFP-eYFP dual reporter) of 66.3%. In turn, “sense rArArGrArCrCrUrGrArGrGrUrArUrArArGrCrUdTdT / antisense rArGrCrUrUrArUrArCrCrUrCrArGrGrUrCrUrUdCdA” registered a normalised inhibition (eCFP-eYFP dual reporter) of 46.4%.

“sense rArGrCrUrGrGrArArCrArGrUrArUrArUrGrArAdTdT / antisense rUrUrCrArUrArUrArCrUrGrUrUrCrCrArGrCrUdGdC” showed a normalised inhibition (eCFP-eYFP dual reporter) of 97.5%.

In turn, “sense rCrUrGrArGrGrUrArUrArArGrCrUrCrUrCrGrCdTdT / antisense rGrCrGrArGrArGrCrUrUrArUrArCrCrUrCrArGdGdT” returned a normalised inhibition (eCFP-eYFP dual reporter) of 75.8%. As to “sense rCrUrArUrCrArCrCrCrCrArArCrGrUrGrGrArCdTdT / antisense rGrUrCrCrArCrGrUrUrGrGrGrGrUrGrArUrArGdCdA”, the normalised inhibition (eCFP-eYFP dual reporter) worked out at 77.2%.

As to “sense rArCrArUrUrGrArUrArGrUrCrCrCrUrUrGrArAdTdT / antisense rUrUrCrArArGrGrGrArCrUrArUrCrArArUrGrUdTdG”, the normalised inhibition (eCFP-eYFP dual reporter) amounted to 90.8%. “sense rArArGrUrUrCrCrUrCrArCrGrCrCrCrUrGrCrUdTdT / antisense rArGrCrArGrGrGrCrGrUrGrArGrGrArArCrUrUdCdA” registered a normalised inhibition (eCFP-eYFP dual reporter) of 51%.
